Assay results taken from paper PMC7749003 (SLAS discovery : advancing life sciences R & D, 2020).

Target: nCDase (Homo sapiens, UniProt Q9NR71)
Assay: manual RBM-ceramide assay with fresh compounds
Format: biochemical
Conditions: dose titration

Chain of nCDase (Q9NR71 99-780 limits assumed): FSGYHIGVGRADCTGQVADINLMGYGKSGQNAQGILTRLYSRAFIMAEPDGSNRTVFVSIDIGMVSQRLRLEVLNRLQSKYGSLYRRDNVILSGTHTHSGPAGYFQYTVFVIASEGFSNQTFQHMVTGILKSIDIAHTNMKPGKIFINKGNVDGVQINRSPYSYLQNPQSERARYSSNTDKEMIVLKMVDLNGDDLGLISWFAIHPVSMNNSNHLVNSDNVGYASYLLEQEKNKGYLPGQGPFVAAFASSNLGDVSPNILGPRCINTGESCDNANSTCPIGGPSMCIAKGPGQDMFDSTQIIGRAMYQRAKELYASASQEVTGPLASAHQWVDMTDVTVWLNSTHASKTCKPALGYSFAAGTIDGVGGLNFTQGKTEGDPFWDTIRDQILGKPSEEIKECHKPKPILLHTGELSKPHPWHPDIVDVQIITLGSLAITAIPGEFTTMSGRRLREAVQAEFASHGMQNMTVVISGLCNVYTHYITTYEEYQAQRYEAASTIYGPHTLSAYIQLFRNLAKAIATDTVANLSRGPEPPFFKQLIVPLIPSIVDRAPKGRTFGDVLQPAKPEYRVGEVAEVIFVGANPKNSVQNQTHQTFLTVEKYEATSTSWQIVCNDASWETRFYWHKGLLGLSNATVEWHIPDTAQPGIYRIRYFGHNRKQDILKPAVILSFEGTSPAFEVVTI

IC50: 4 µM
Compound: CC(/C=C/C(=O)NO)=C\[C@@H](C)C(=O)c1ccc(N(C)C)cc1 [TSA, Trichostatin A]
